Data: patent US8975234B2, “Anti-bacterial infection, inflammation, and leukemia composition and use thereof” (priority 2011, dated 2015)
In brackets after ≈: the same amount, converted by molar mass. Read-outs that look alike come from different tables or passages of the source.

Tests used:
K-562 cells = test: ROS test (DCF-DA); format: cell-based, human; details: pre-treatment 10 μM before Tellimagrandin II 50 μM for 2 hours
Experimental: A radical specific fluorescent dye, 2′,7′-dichlorofluorescein (DCF-DA) was used to detect H2O2/NO-based radicals or O2— in cells respectively.
A total of 3 mL cell solution at the concentration of 1×10^6 K-562 cells per mL was cultured with 6 cm cell culture plates in an incubator supplied with 5% CO2 at 37° C. for 30 minutes so that cells could adapt to the environment. Tellimagrandin II solutions of different concentrations were added by order so that the final concentrations are 0, 30, 40 and 50 μM respectively. The solution was placed in incubator with 5% CO2 at 37° C. for 2 hours before being centrifuged at 3,500 rpm at 4° C. for 5 minutes and then being rinsed by PBS once. 2′,7′-dichlorofluorescein (DCF-DA) was added before the solution was put into dark incubator for 45 minutes and then rinsed by PBS once again. Finally, 1 mL PBS was used to resuspend the cells before BD FACScan was used to detect the fluorescent signal.

[1] = tested on: standard MRSA strain (ATCC 33591); test: Minimum inhibitory concentration (broth microdilution); format: cell-based, Staphylococcus aureus; details: Staphylococcus aureus, Table 1
Experimental: (§1) A serial of twofold dilution of the tested antibiotics (oxacillin, erythromycin, ampicillin, kanamycin, levofoxacin, vancomycin and doxycycline) was perform by Broth microdilution method to a final concentration of 2-512 μg/mL. The bacterial overnight culture was collected and re-suspended in the Muller-Hilton (M-H) broth. An aliquot of cell suspension (OD600=0.1) was prepared. The bacterial suspensions were plated in 96-well plate and incubated with test antibiotics at 37° C. in a 5% CO2 incubator (Table 1 to Table 4).

[2] = tested on: Staphylococcus aureus (MSSA and MRSA strains); test: Synergy of antibiotics with Tellimagrandin II (text summary of Tables 1 to 4); format: cell-based; details: Table 2
Experimental: as §1
(§2) The […], […] and antagonism between two drugs was evaluated by the following formula:
(§3) [formula] The criteria of fractional inhibitory concentration index: […]

[3] = tested on: MSSA (Methicillin-susceptible Staphylococcus aureus); test: Minimum inhibitory concentration (broth microdilution) and FIC index; format: cell-based
Experimental: as §1, §2, §3

MRSA 19615 [4] = test: Time-killing curve; format: cell-based, Staphylococcus aureus; details: 5 μg/mL alone
Experimental: MRSA 19615 bacteria were cultured overnight, collected and re-suspended in 25 mL MHB containing TGII and antibiotics of the indicated final concentration. To dilute the samples, samples were taken from the suspension at indicated time interval and mixed with filtered PBS, followed by spreading the diluted sample on MHA plated for two plates/each time point. Colony counts between 150 and 500 colonies in first time point was used to determine the dilution fold. Time-killing curves were calculated from colony counting and data analyzing was performed after overnight culture. Bacterial time-kill curves were constructed by plotting mean colony counts (log10 cfu/mL) versus time (FIGS. 4 and 5).

MRSA 18631 = test: Minimum inhibitory concentration (broth microdilution) and FIC index; format: cell-based, Staphylococcus aureus
Experimental: as §1, §2, §3

MRSA 18271 = test: as above; format: cell-based, Staphylococcus aureus
Experimental: as §1, §2, §3

MRSA 19615 [5] = test: as above; format: cell-based, Staphylococcus aureus
Experimental: as §1, §2, §3

[6] = tested on: 14 clinical isolated MRSA strains; test: MIC and FIC index of oxacillin with Tellimagrandin II, clinical isolates; format: cell-based; details: Staphylococcus aureus
Experimental: 14 clinical isolated MRSA strains were tested with oxacillin and Tellimagrandin II (40 μg/mL) and the FIC index was calculated.
as §1, §2, §3

[7] = Table 3, MSSA, Tellimagrandin II (40 μg/ml) +
[8] = Table 3, 18631, Tellimagrandin II (40 μg/ml) +
[9] = Table 3, 18271, Tellimagrandin II (40 μg/ml) +
[10] = Table 3, 19615, Tellimagrandin II (40 μg/ml) +

## CC(=O)N[C@@H](CS)C(=O)O [N-acetyl-L-cysteine]
K-562 cells
  ROS production: inhibition of ROS production

## Cc1onc(-c2ccccc2)c1C(=O)N[C@@H]1C(=O)N2[C@@H]1SC(C)(C)[C@@H]2C(=O)O [Oxacillin]
[1]
  MIC: 512 µg/mL (≈ 1280 µM)
[2]
  effect of antibiotic with Tellimagrandin II: synergistic effect
[3]; Staphylococcus aureus, MSSA, Table 1, MSSA, read-out: Minimum inhibitory concentration
  MIC: 4 µg/mL
[3]; Staphylococcus aureus, MSSA, Table 2, Non-drug resistant Staphylococcus aureus, with TG II 30 μg/mL, read-out: MIC
  MIC: < 2 µg/mL
[3]; Staphylococcus aureus, MSSA, Table 2, Non-drug resistant Staphylococcus aureus, with TG II 40 μg/mL, read-out: MIC
  MIC: < 2 µg/mL
[3]; Staphylococcus aureus, MSSA, Table 2, Non-drug resistant Staphylococcus aureus, without TG II, read-out: MIC
  MIC: 4 µg/mL
[3]; Staphylococcus aureus, MSSA, Table 3, MSSA, Tellimagrandin II (40 μg/ml) −, read-out: MIC
  MIC: 4 µg/mL
[3]; Table 2, Non-drug resistant Staphylococcus aureus, with TG II 30 μg/mL
  FIC: 0.5
[3]; Table 2, Non-drug resistant Staphylococcus aureus, with TG II 40 μg/mL
  FIC: 0.5
[3]; [7]
  FIC: 0.5
  MIC: 2 µg/mL
MRSA 19615 [4]
  bacterial growth, time-killing curve: failed to inhibit bacterial growth
MRSA 18631; Staphylococcus aureus, MRSA, Table 1, MRSA 18631, read-out: Minimum inhibitory concentration
  MIC: > 512 µg/mL
MRSA 18631; Staphylococcus aureus, MRSA, Table 2, 18631, with TG II 30 μg/mL, read-out: MIC
  MIC: 64 µg/mL
MRSA 18631; Staphylococcus aureus, MRSA, Table 2, 18631, with TG II 40 μg/mL, read-out: MIC
  MIC: 8 µg/mL
MRSA 18631; Staphylococcus aureus, MRSA, Table 2, 18631, without TG II, read-out: MIC
  MIC: 512 µg/mL
MRSA 18631; Staphylococcus aureus, MRSA, Table 3, 18631, Tellimagrandin II (40 μg/ml) −, read-out: MIC
  MIC: 512 µg/mL
MRSA 18631; Table 2, 18631, with TG II 30 μg/mL
  FIC: 0.125
MRSA 18631; Table 2, 18631, with TG II 40 μg/mL
  FIC: 0.016
MRSA 18631; [8]
  FIC: 0.016
  MIC: 8 µg/mL
MRSA 18271; Staphylococcus aureus, MRSA, Table 1, MRSA 18271, read-out: Minimum inhibitory concentration
  MIC: > 512 µg/mL
MRSA 18271; Staphylococcus aureus, MRSA, Table 2, 18271, with TG II 30 μg/mL, read-out: MIC
  MIC: 32 µg/mL
MRSA 18271; Staphylococcus aureus, MRSA, Table 2, 18271, with TG II 40 μg/mL, read-out: MIC
  MIC: 16 µg/mL
MRSA 18271; Staphylococcus aureus, MRSA, Table 2, 18271, without TG II, read-out: MIC
  MIC: 512 µg/mL
MRSA 18271; Staphylococcus aureus, MRSA, Table 3, 18271, Tellimagrandin II (40 μg/ml) −, read-out: MIC
  MIC: 512 µg/mL
MRSA 18271; Table 2, 18271, with TG II 30 μg/mL
  FIC: 0.0063
MRSA 18271; Table 2, 18271, with TG II 40 μg/mL
  FIC: 0.0031
MRSA 18271; [9]
  FIC: 0.031
  MIC: 16 µg/mL
MRSA 19615 [5]; Staphylococcus aureus, MRSA, Table 1, MRSA 19615, read-out: Minimum inhibitory concentration
  MIC: 512 µg/mL
MRSA 19615 [5]; Staphylococcus aureus, MRSA, Table 2, 19615, with TG II 30 μg/mL, read-out: MIC
  MIC: < 2 µg/mL
MRSA 19615 [5]; Staphylococcus aureus, MRSA, Table 2, 19615, with TG II 40 μg/mL, read-out: MIC
  MIC: 4 µg/mL
MRSA 19615 [5]; Staphylococcus aureus, MRSA, Table 2, 19615, without TG II, read-out: MIC
  MIC: 512 µg/mL
MRSA 19615 [5]; Staphylococcus aureus, MRSA, Table 3, 19615, Tellimagrandin II (40 μg/ml) −, read-out: MIC
  MIC: 512 µg/mL
MRSA 19615 [5]; Table 2, 19615, with TG II 30 μg/mL
  FIC: 0.004
MRSA 19615 [5]; Table 2, 19615, with TG II 40 μg/mL
  FIC: 0.008
MRSA 19615 [5]; [10]
  FIC: 0.008
  MIC: 4 µg/mL
[6]; MRSA 1, oxacillin alone
  MIC: 512 µg/mL
[6]; MRSA 2, oxacillin alone
  MIC: 512 µg/mL
[6]; MRSA 3, oxacillin alone
  MIC: 512 µg/mL
[6]; MRSA 4, oxacillin alone
  MIC: 512 µg/mL
[6]; MRSA 5, oxacillin alone
  MIC: 512 µg/mL
[6]; MRSA 6, oxacillin alone
  MIC: 256 µg/mL
[6]; MRSA 7, oxacillin alone
  MIC: 256 µg/mL
[6]; MRSA 8, oxacillin alone
  MIC: 128 µg/mL
[6]; MRSA 9, oxacillin alone
  MIC: 128 µg/mL
[6]; MRSA 10, oxacillin alone
  MIC: 64 µg/mL
[6]; MRSA 11, oxacillin alone
  MIC: 64 µg/mL
[6]; MRSA 12, oxacillin alone
  MIC: 64 µg/mL
[6]; MRSA 13, oxacillin alone
  MIC: 64 µg/mL
[6]; MRSA 14, oxacillin alone
  MIC: 32 µg/mL
